Measurements reported in patent US20040071633A1, “Method for determining efficacy of reverse cholesterol transport enhancing agents” (priority 2003, published 2004).

Legend:
THP-1 cells [1] = assay: cholesterol efflux from [3H]cholesterol-labeled THP-1 cells mediated by sCD14 or apo A-I; assay type: cell-based
Experimental: FIGS. 1a, 1b and 1c are graphs showing the effect of sCD14 concentration on cholesterol efflux. [^3H]cholesterol-labeled THP-1 cells were incubated with the indicated concentration of sCD14 (closed circles), apo A-I (open circles) or HSA (inverted triangles) in RPMI for 30 min (a and b) or for 20 h (c). Each point represents the mean of three measurements±SD (a) or the average of duplicate samples±range (b and c). Data are representative of five independent experiments with similar results.
[^3H]cholesterol-labeled THP-1 cells were incubated with increasing concentrations of sCD14, apo A-I or the control protein, HSA, and radioactivity in the supernatant was determined. The initial rate of cholesterol efflux was explored in studies of short duration (30 min, FIG. 1a and with extended dose response in FIG. 1b). […] Because of the linear dose-dependence of sCD14-mediated efflux and because no other cholesterol acceptor was present in the incubation, these observations appear most consistent with a direct, low affinity binding of cholesterol to sCD14.
The maximal extent of cholesterol efflux mediated by apo A-I and sCD14 was explored in parallel experiments of 24 hr duration (FIG. 1c). […] However, because of the limiting concentrations of sCD14 in plasma (3-5 μg/ml) and the far greater concentration of apo A-I (˜1 mg/ml), sCD14 per se is unlikely to be a significant reservoir or destination for the cholesterol in plasma.

THP-1 cells [2] = assay: sCD14 acceleration of cholesterol efflux from [3H]cholesterol-labeled THP-1 cells to apo A-I, HDL3 or HDL; assay type: cell-based; conditions: sCD14 5 μg/ml alone or apo A-I 100 μg/ml alone
Experimental: FIG. 2 is a graph showing the kinetics of cholesterol efflux by sCD14 and/or apo A-I. [^3H]cholesterol-labeled THP-1 cells were incubated with or without 5 μg/ml of sCD14 and/or 100 μg/ml of apo A-I in RPMI. Background efflux without proteins at each time was measured and subtracted from other data point. Closed circles, sCD14; open circles, apo A-I; inverted triangles, sCD14 and apo A-L. Data represents the mean of three measurements±SD. The data were repeated with similar results.
FIG. 3 is a graph showing the dose dependent additive effect of sCD14 for cholesterol efflux to apo A-I but not to HDL. [^3 H]cholesterol-labeled TBP-1 cells were incubated in buffer containing 50 μg/ml of apo A-I, HDL3 or HDL with or without the indicated concentration of sCD14 for 1 h. Open bar, without sCD14; hatched bar, 10 μg/ml sCD14; black bar, 25 μg/ml sCD14. Background efflux without proteins at each time was measured and subtracted from other data point. Asterisks show statistical significance compared to the data without sCD14: *, p<0.01; **, p<0.001. Data are representative of three independent experiments with similar results.
The following experiment was performed to determine if sCD14 could facilitate the efflux of cholesterol to its major acceptor, apo A-I (FIG. 2). […]

CD14 mRNA = CD14 mRNA expression by real-time quantitative TaqMan PCR in THP-1 or HepG2 cells; assay type: cell-based, human
Experimental: (§1) FIGS. 5a and 5b are graphs showing that activation of LXR increases mRNA expression of ABCA1 and CD14. THP-1 or HepG2 cells (5×10^5 cells/well) were plated in 6-well plates, and mixed with buffer (open bar) or 22(R)—OH cholesterol (10 μM, closed bar). After overnight incubation (˜16 hr) at 37° C., RNA samples were prepared from the cultured cells, and mRNAs for ABCA1 (a) and CD14 (b) were measured as described in Example 4, below. Results are presented as fold of control (untreated cells), and data are shown as the means±range of duplicate determinations.
(§2) Recent studies indicate that cholesterol efflux from cells is regulated by the transcription factor, LXR, which binds regulatory oxysterols and enhances expression of ABCA1 (see Costet, P., Luo, Y., Wang, N., and Tall, A. R. (2000) J. Biol. Chem. 275, 28240-28245; and Schwartz, K., Lawn, R. M., and Wade, D. P. (2000) Biochem. Biophys. Res. Commun. 274, 794-802.). If CD14 shared with ABCA1 a role in cholesterol efflux from cells, the expression of CD14 might be regulated in parallel with ABCA1 to help achieve cholesterol homeostasis. To test this, cells were incubated with 22(R)-hydroxycholesterol (22R—OH cholesterol), a specific ligand for LXR, and expression of ABCA1 and CD14 mRNA was measured by real time PCR. […] The dose dependence for induction of ABCA1 and CD14 was roughly similar with half-maximal induction observed at ˜10 μM (not shown). Induction of ABCA1 appeared slightly more rapid than that of CD14, but both reached a plateau level by 16 hr. The magnitude of the response of CD14 to 22R—OH cholesterol was less than that observed for ABCA1, but the increase was consistently seen with either of these two cell types. […]
(§3) Real-time quantitative TaqMan PCR analysis (Heid, C. A., Stevens, J., Livak, K. J., and Williams, P. M. (1996) Genome Res. 6, 986-994) was used to determine the relative levels of CD14 and ABCA1 mRNA. […] Sequence-specific amplification was detected with an increased fluorescent signal of FAM (reporter dye) during the amplification cycle. […]

ABCA1 mRNA = ABCA1 mRNA expression by real-time quantitative TaqMan PCR in THP-1 or HepG2 cells; assay type: cell-based, human
Experimental: as §1, §2, §3

[3] = THP-1 monocytes or HepG2, 10 μM, overnight (~16 hr)

Compound	concentration at which cholesterol efflux is saturable (THP-1 cells [1]; 30 min assays, THP-1 cells, no other cholesterol acceptor)	concentration leading to near maximal cholesterol efflux (THP-1 cells [1]; 24 hr duration, THP-1 cells)	capacity to mediate cholesterol efflux relative to CD14 (THP-1 cells [1]; 24 hr duration, comparison of dose-dependence curves)	cholesterol efflux by protein alone, kinetic analysis (THP-1 cells [2])	time to plateau level of CD14 induction (CD14 mRNA)	EC50 (CD14 mRNA; Homo sapiens, dose dependence (not shown), read-out: half-maximal induction of CD14)	CD14 mRNA expression (CD14 mRNA; [3])	time to plateau level of ABCA1 induction (ABCA1 mRNA)	EC50 (ABCA1 mRNA; Homo sapiens, dose dependence (not shown), read-out: half-maximal induction of ABCA1)	ABCA1 mRNA expression (ABCA1 mRNA; [3])
apo A-I: apolipoprotein A-I, major acceptor of cellular cholesterol	10 to 20 µg/mL	10 µg/mL	10-20 fold	larger efflux						
CC(C)CC[C@@H](O)[C@@H](C)[C@H]1CC[C@H]2[C@@H]3CC=C4C[C@@H](O)CC[C@]4(C)[C@H]3CC[C@]12C [22(R)-hydroxycholesterol]					≤ 16 h	~10 µM	consistent rise	≤ 16 h	~10 µM	consistent rise
